Source: PubChem BioAssay AID330 (DTP/NCI, 2004)
Where “and” joins values, the source holds several entries; their conditions need not be identical. Identical values can stand only once. Inconclusive results and toxic doses are left out. The calls were made as follows: active = survival T/C of 150% or more; inactive = T/C below 125% in these data.

Tested on: P388 leukemia ip, CD2F1 mice, survival T/C
Experiment: NCI In Vivo Anticancer Drug Screen. Data for tumor model P388 Leukemia (intraperitoneal) in CD2F1 (CDF1) mice
Conditions: endpoint: median survival time, higher = longer survival
Summary of the method: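 Mice carrying the transplanted tumor received test compound or vehicle. Survival was recorded in each group, and the value is the treated-group measurement divided by that of the vehicle-treated control group.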

[1] = dose: 100.0 mg/kg/injection, schedule: Q04DX002 (ip), vehicle: Klucel (hydroxypropylcellulose) (HPC)
[2] = dose: 200.0 mg/kg/injection, schedule: Q04DX002 (ip), vehicle: Klucel (hydroxypropylcellulose) (HPC)
[3] = dose: 50.0 mg/kg/injection, schedule: Q01DX009 (ip), vehicle: saline with Tween-80
[4] = dose: 100.0 mg/kg/injection, schedule: Q01DX009 (ip), vehicle: saline with Tween-80
[5] = dose: 50.0 mg/kg/injection, schedule: Q01DX005 (ip), vehicle: saline with Tween-80
[6] = dose: 100.0 mg/kg/injection, schedule: Q01DX005 (ip), vehicle: saline with Tween-80
[7] = dose: 200.0 mg/kg/injection, schedule: Q01DX005 (ip), vehicle: saline with Tween-80
[8] = dose: 50.0 mg/kg/injection, schedule: Q01DX001 (ip), vehicle: saline with Tween-80
[9] = dose: 100.0 mg/kg/injection, schedule: Q01DX001 (ip), vehicle: saline with Tween-80
[10] = dose: 200.0 mg/kg/injection, schedule: Q01DX001 (ip), vehicle: saline with Tween-80
[11] = dose: 400.0 mg/kg/injection, schedule: Q01DX001 (ip), vehicle: saline with Tween-80
[12] = dose: 200.0 mg/kg/injection, schedule: Q01DX009 (ip), vehicle: saline with Tween-80
[13] = dose: 25.0 mg/kg/injection, schedule: Q01DX009 (ip), vehicle: saline
[14] = dose: 50.0 mg/kg/injection, schedule: Q01DX009 (ip), vehicle: saline
[15] = dose: 100.0 mg/kg/injection, schedule: Q01DX009 (ip), vehicle: saline
[16] = dose: 25.0 mg/kg/injection, schedule: Q01DX005 (ip), vehicle: Klucel (hydroxypropylcellulose) (HPC)
[17] = dose: 50.0 mg/kg/injection, schedule: Q01DX005 (ip), vehicle: Klucel (hydroxypropylcellulose) (HPC)
[18] = dose: 100.0 mg/kg/injection, schedule: Q01DX005 (ip), vehicle: Klucel (hydroxypropylcellulose) (HPC)
[19] = dose: 200.0 mg/kg/injection, schedule: Q01DX005 (ip), vehicle: Klucel (hydroxypropylcellulose) (HPC)
[20] = dose: 60.0 mg/kg/injection, schedule: Q01DX005 (ip), vehicle: saline
[21] = dose: 120.0 mg/kg/injection, schedule: Q01DX005 (ip), vehicle: saline
[22] = dose: 240.0 mg/kg/injection, schedule: Q01DX005 (ip), vehicle: saline

Measured: T/C

COc1cc2c(cc1OC)[C@@]1(C[C@H]1CO)OCC2
inactive: [1] 100 % of control | [2] 98 % of control | dose: 400.0 mg/kg/injection, schedule: Q04DX002 (ip), vehicle: Klucel (hydroxypropylcellulose) (HPC) 95 % of control

Clc1nc2nc(Cl)c(Cl)n2c(Cl)c1Cl
inactive: dose: 100.0 mg/kg/injection, schedule: Q04DX002 (ip), vehicle: saline with Tween-80 105 % of control | dose: 200.0 mg/kg/injection, schedule: Q04DX002 (ip), vehicle: saline with Tween-80 117 % of control

O=C1c2cccc3c2C2(O)c4c1cccc4C(=O)c1cccc(c12)C3=O
inactive: [3] 100 % of control | [4] 90 % of control

CC(C)C1=CC(=O)C2=C(CCC3C4=C(CCC23C)C(=O)OC4)C1=O (configuration not stated)
inactive: dose: 6.25 mg/kg/injection, schedule: Q01DX009 (ip), vehicle: DMSO 105 % of control | dose: 12.5 mg/kg/injection, schedule: Q01DX009 (ip), vehicle: DMSO 113 % of control | dose: 25.0 mg/kg/injection, schedule: Q01DX009 (ip), vehicle: DMSO 98 % of control

Nc1ncc2nc3c4ccccc4c(=O)cc-3oc2n1
inactive: [5] 96 % of control | [6] 96 % of control | [7] 91 % of control

O=C1/C(=C/c2ccc([N+](=O)[O-])cc2)Cc2c1cccc2[N+](=O)[O-]
inactive: dose: 25.0 mg/kg/injection, schedule: Q01DX001 (ip), vehicle: saline with Tween-80 98 % of control | [8] 98 % of control | [9] 99 % of control and 95 % of control | [10] 93 % of control | [11] 89 % of control

O=c1nc2scc(-c3ccccc3)n2c2sc3c(c12)CCCC3
inactive: [9] 106 % of control | [10] 95 % of control | [11] 93 % of control

c1ccc2cc(-c3nc4cccc5c4n3CCC5)ccc2c1
inactive: [4] 105 % of control | [12] 95 % of control | dose: 400.0 mg/kg/injection, schedule: Q01DX009 (ip), vehicle: saline with Tween-80 115 % of control

OCC[N-]CC[N-]CCO.[Cl][Co][Cl]
inactive: dose: 6.25 mg/kg/injection, schedule: Q01DX009 (ip), vehicle: saline 103 % of control | dose: 12.5 mg/kg/injection, schedule: Q01DX009 (ip), vehicle: saline 120 % of control | [13] 120 % of control | [14] 122 % of control | [15] 92 % of control

CC(=O)N/C(=C\c1ccc(Cl)cc1)C(=O)c1ccc(C)cc1
inactive: [8] 99 % of control | [9] 97 % of control | [10] 97 % of control

CSC(=S)n1nc(-c2ccccc2)c(N=Nc2ccccc2[N+](=O)[O-])c1-c1ccccc1
inactive: [1] 105 % of control | [2] 97 % of control

COc1cccc2c1C(=O)c1c(O)c3c(c(O)c1C2=O)CC(O)(C(C)=O)CC3OC1CCN(c2ccccc2)CC(C)O1 (configuration not stated)
inactive: dose: 3.13 mg/kg/injection, schedule: Q04DX003 (ip), vehicle: distilled water + Tween-80 96 % of control | dose: 6.25 mg/kg/injection, schedule: Q04DX003 (ip), vehicle: distilled water + Tween-80 98 % of control | dose: 12.5 mg/kg/injection, schedule: Q04DX003 (ip), vehicle: distilled water + Tween-80 100 % of control | dose: 25.0 mg/kg/injection, schedule: Q04DX003 (ip), vehicle: distilled water + Tween-80 98 % of control | dose: 50.0 mg/kg/injection, schedule: Q04DX003 (ip), vehicle: distilled water + Tween-80 105 % of control

CC1=Cc2cc(C)cc(C)c2C1=O
inactive: [5] 90 % of control | [6] 93 % of control | [7] 96 % of control

NC(C(=O)O)C1=CCCCCC1 (configuration not stated)
inactive: [16] 100 % of control | [17] 101 % of control | [18] 106 % of control | [19] 101 % of control

Cc1ccc(NC(=O)N(CCCCl)N=O)cc1
inactive: [3] 86 % of control | dose: 100.0 mg/kg/injection, schedule: Q04DX003 (ip), vehicle: saline with Tween-80 95 % of control | [12] 100 % of control | dose: 200.0 mg/kg/injection, schedule: Q04DX003 (ip), vehicle: saline with Tween-80 90 % of control

COc1ccc(S(=O)(=O)N/N=C/c2ccccn2)cc1OC
inactive: [17] 99 % of control | [18] 96 % of control | [19] 98 % of control

O=P1(NCCCNP2(=O)OC(CCl)=NC2c2ccccc2Cl)OC(CCl)=NC1c1ccccc1Cl (configuration not stated)
inactive: [20] 93 % of control | [21] 98 % of control | [22] 103 % of control

COc1ccc(-c2cc3cc(OC)c(OC)cc3cn2)cc1OC
inactive: dose: 6.25 mg/kg/injection, schedule: Q01DX009 (ip), vehicle: suspension in saline 99 % of control | dose: 12.5 mg/kg/injection, schedule: Q01DX009 (ip), vehicle: suspension in saline 98 % of control | [13] 98 % of control | dose: 25.0 mg/kg/injection, schedule: Q01DX009 (ip), vehicle: suspension in saline 97 % of control | [14] 90 % of control

COc1ccc2c(c1OC)C1=NCCc3cc4c(cc3C1(OC)C2=O)OCO4 (configuration not stated)
inactive: [16] 111 % of control | [17] 99 % of control | [18] 109 % of control | [19] 98 % of control

O=P(c1ccccc1)(c1ccccc1)c1ccccc1OCc1cccc(COc2ccccc2P(=O)(c2ccccc2)c2ccccc2)n1
inactive: [17] 99 % of control | [18] 91 % of control | [19] 97 % of control

CC(=O)CC(=O)CCCC(=O)O
inactive: [3] 96 % of control | [4] 99 % of control | [12] 104 % of control

CCOP(=O)(OCC)C(C)OC (configuration not stated)
inactive: [14] 100 % of control | [15] 100 % of control | dose: 200.0 mg/kg/injection, schedule: Q01DX009 (ip), vehicle: saline 106 % of control | dose: 400.0 mg/kg/injection, schedule: Q01DX009 (ip), vehicle: saline 100 % of control

CCCCCOCc1cc(C)no1
inactive: dose: 60.0 mg/kg/injection, schedule: Q01DX005 (ip), vehicle: saline with Tween-80 104 % of control | dose: 120.0 mg/kg/injection, schedule: Q01DX005 (ip), vehicle: saline with Tween-80 109 % of control | dose: 240.0 mg/kg/injection, schedule: Q01DX005 (ip), vehicle: saline with Tween-80 104 % of control

COC(=O)c1cn[nH]c1CC(N)=O
inactive: [20] 100 % of control | [21] 103 % of control | [22] 103 % of control

c1ccc(-c2nnn(CCCN3CCOCC3)n2)cc1
inactive: dose: 100.0 mg/kg/injection, schedule: Q01DX001 (ip), vehicle: Klucel (hydroxypropylcellulose) (HPC) 100 % of control | dose: 200.0 mg/kg/injection, schedule: Q01DX001 (ip), vehicle: Klucel (hydroxypropylcellulose) (HPC) 97 % of control | dose: 400.0 mg/kg/injection, schedule: Q01DX001 (ip), vehicle: Klucel (hydroxypropylcellulose) (HPC) 102 % of control

Fc1ccc(OCCC(Cn2ccnc2)c2ccc(Cl)cc2Cl)cc1 (configuration not stated)
inactive: dose: 12.5 mg/kg/injection, schedule: Q01DX009 (ip), vehicle: saline with Tween-80 106 % of control | dose: 25.0 mg/kg/injection, schedule: Q01DX009 (ip), vehicle: saline with Tween-80 106 % of control | [3] 88 % of control and 94 % of control
